Measurements: patent EP0429153A1, “Novel agroclavine and elymoclavine derivatives, processes for their preparation and their use in medicinal preparations” (SCHERING AKTIENGESELLSCHAFT, priority 1989, dated 1991)

System: männliche Wistar-Ratten
Assay: Induction of stereotypies in rats, automatic registration (method of Horowski)
Assay type: in vivo
Conditions: intraperitoneal, 60 minutes, n = 12
Source text: Die dopaminagonistische Wirkung wurde mit Hilfe der von Horowski beschriebenen Methode der automatischen Registrierung von Stereotypien an Ratten bestimmt (Arzneim. Forsch. 12, 2281-2286, 1978): Unmittelbar nach intraperitonealer Prüfsubstanz- bzw. Vehikelverabreichung werden männliche Wistar-Ratten (90-120 g) einzeln in Zwangskäfige aus Acrylglas gesetzt. Uber ein vor dem Kopf der Tiere angebrachtes elektrodynamisches Aufnahmesystem wird die Zahl der Kontakte an einem stählernen Becher mit einem zentralen Metallstab als Folge der stereotypen Kau-, Leck- und Nagebewegungen während 60 Minuten registriert. Die Mittelwerte ± S.E.M. der Anzahl der Kontakte während 60 Minuten für die verschiedenen Behandlungsgruppen, die mit jeweils 12 Tieren besetzt sind, werden berechnet und die Signifikanz der Unterschiede zwischen den Mittelwerten der verschiedenen Prüfsubstanzdosen im Vergleich zur Vehikel-behandelten Kontrollgruppe mit Hilfe der einfachen Varianzanalyse in Verbindung mit dem Dunnett-Test ermittelt.

[1] = Prüfsubstanzdosis 0.025 (dose unit not given)
[2] = Prüfsubstanzdosis 0.1 (dose unit not given)
[3] = Prüfsubstanzdosis 0.39 (dose unit not given)
[4] = Prüfsubstanzdosis 1.56 (dose unit not given)

SMILES	Stereotypien (counts pro 60 Minuten) Mittelwert ± S.F.M.) [1]	Stereotypien (counts pro 60 Minuten) Mittelwert ± S.F.M.) [2] [xx counts pro 60 Minuten]	Stereotypien (counts pro 60 Minuten) Mittelwert ± S.F.M.) [3] [xx counts pro 60 Minuten]	Stereotypien (counts pro 60 Minuten) Mittelwert ± S.F.M.) [4] [xx counts pro 60 Minuten]	Stereotypien (counts pro 60 Minuten) Mittelwert ± S.F.M.) (Prüfsubstanzdosis 6.25 (dose unit not given)) [xx counts pro 60 Minuten]
CCCN1CC(C)=C[C@@H]2c3cccc4[nH]c(C)c(c34)C[C@H]21 [CH3 / CH2CH2CH3]	4726 ± 1148xx counts pro 60 Minuten	7601 ± 1182	9200 ± 672	10150 ± 598	–
CCCN1CC(C)=C[C@@H]2c3cccc4[nH]c(Cl)c(c34)C[C@H]21 [Cl / CH2CH2CH3]	2091 ± 394 counts pro 60 Minuten	6470 ± 1018	7364 ± 927	8837 ± 699	10397 ± 1126
